Data on four compounds can be found in PMC7365701 (Journal of medicinal chemistry, 2020).

Data set [1] relates to retinal vascular leakage in diabetic rats. Kind of data set: STZ-induced diabetic rat model, retinal vascular permeability. The format is in vivo, Brown Norway rat. Conditions: daily i.p. for 28 days.
Data set [2] deals with human ether-á-go-go (hERG) potassium channel (Homo sapiens, UniProt Q12809). Kind of data set: hERG automated whole cell patch-clamp. It counts as cell-based. Particulars: tested at 0.1, 1 and 10 μM; ≥50% inhibition at 10 μM flagged as toxic. Background: Block of hERG is tested as a sign of cardiac risk.
human ether-á-go-go (hERG) potassium channel, sequence (Q12809 whole entry): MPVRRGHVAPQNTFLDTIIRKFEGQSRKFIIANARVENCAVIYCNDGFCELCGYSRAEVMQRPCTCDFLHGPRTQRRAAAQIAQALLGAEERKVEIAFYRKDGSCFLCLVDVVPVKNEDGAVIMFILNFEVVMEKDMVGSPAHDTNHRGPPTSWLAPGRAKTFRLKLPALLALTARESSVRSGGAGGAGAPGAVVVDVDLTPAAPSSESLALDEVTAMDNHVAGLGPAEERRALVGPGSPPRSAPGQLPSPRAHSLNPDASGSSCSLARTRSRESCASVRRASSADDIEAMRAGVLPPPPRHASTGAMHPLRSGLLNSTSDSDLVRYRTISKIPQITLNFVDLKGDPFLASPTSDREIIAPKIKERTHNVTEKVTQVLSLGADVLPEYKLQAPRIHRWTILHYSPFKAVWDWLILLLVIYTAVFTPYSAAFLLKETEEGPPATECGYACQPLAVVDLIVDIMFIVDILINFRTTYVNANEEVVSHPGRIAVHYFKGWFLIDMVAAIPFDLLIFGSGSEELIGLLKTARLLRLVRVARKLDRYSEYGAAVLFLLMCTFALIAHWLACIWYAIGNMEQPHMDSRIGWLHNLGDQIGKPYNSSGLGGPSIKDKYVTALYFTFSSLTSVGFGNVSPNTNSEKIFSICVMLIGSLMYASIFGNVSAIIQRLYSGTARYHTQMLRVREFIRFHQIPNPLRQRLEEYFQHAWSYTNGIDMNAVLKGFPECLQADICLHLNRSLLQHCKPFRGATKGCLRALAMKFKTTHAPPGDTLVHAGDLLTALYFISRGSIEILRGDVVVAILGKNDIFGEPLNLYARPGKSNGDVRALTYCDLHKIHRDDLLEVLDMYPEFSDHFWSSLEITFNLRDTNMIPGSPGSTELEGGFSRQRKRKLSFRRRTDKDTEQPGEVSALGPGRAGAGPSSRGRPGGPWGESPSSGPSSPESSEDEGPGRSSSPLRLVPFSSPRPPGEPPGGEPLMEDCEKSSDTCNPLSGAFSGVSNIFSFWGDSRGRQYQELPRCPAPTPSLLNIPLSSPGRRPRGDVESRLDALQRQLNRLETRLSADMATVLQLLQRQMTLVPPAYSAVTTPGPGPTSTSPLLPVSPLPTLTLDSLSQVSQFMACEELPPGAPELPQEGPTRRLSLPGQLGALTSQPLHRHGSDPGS
Data set [3] concerns the target T1, human PPARα (hPPARα) (Homo sapiens, UniProt Q07869).
T1 sequence (Q07869 1-468): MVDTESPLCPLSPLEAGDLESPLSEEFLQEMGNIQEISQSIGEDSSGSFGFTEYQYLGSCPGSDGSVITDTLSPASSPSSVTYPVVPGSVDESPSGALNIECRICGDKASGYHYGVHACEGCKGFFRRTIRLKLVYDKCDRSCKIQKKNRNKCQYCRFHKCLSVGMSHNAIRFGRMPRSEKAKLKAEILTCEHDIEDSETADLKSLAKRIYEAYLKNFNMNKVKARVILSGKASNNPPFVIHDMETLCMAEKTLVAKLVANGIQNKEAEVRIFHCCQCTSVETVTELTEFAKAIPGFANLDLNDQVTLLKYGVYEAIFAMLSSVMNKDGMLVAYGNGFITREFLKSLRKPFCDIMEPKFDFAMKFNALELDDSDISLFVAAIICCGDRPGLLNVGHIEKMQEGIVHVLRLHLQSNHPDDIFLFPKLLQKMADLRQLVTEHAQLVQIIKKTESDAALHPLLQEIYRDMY

Data set [4] in a line: Stability in rat liver microsomes. Conditions: compared with 4a (A91). It counts as in vitro ADME. (Microsomes from liver hold many membrane-bound enzymes, among them those of drug oxidation.)
Data set [5] deals with T2, Ligand Binding Domain of PPARα (Homo sapiens, UniProt Q07869).
T2 sequence (Q07869 239-466 limits assumed): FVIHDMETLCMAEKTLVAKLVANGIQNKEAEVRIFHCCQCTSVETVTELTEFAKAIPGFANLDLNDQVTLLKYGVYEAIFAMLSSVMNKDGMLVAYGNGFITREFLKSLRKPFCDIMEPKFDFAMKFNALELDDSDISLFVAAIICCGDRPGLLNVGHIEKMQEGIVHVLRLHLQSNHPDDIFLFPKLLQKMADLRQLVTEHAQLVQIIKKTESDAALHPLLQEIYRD
Kind of data set: Isothermal titration calorimetry. Particulars: 4b vs 4a; 4u vs 4b.

The test system of data set [6] is cytochrome P450 isoforms (1A, 2C9, 2C19, 2D6, and 3A). Kind of data set: Time-dependent CYP inhibition in pooled human liver microsomes. The format is in vitro ADME. Particulars: 10 μM, pre-incubation ± NADPH.
Data set [7] is described as follows: Stability in human liver microsomes. The format is in vitro ADME. Conditions: compared with 4a (A91).
The next data set addresses T3, PPARα (Homo sapiens, UniProt Q07869).
T3 sequence (Q07869 1-468): T1 sequence (Q07869 1-468)
Kind of data set: Cellular thermal shift assay. Conditions: MIO-M1 cells, 45.5 °C. It counts as cell-based.

Data set [8] addresses T1, human PPARα (hPPARα). Kind of data set: cell-based. Particulars: EC50 hPPARα (cellular potency), luciferase reporter. (A reporter such as luciferase makes a cellular process visible.)

Turning to `COc1ccc(COc2ccc(CNc3cccc(C(=O)O)c3)cc2)cc1` [Compound 4a, 3-((4-((4-methoxybenzyl)oxy)benzyl)amino)benzoic acid], in data set [1], the “hepatomegaly (liver phenotype)” value is given as “lack signs of hepatomegaly”. Moreover, in data set [1] (Evans blue tracer), the retinal vascular leakage result is reported as “reduces retinal vascular leakage in diabetic rats to the range of the non-diabetic cohort”. The “hERG channel liability” value in data set [2] is on record as “low potency”.

For the compound `O=C(O)c1cccc(NCc2ccc(OCc3ccc(F)cc3F)cc2)c1` [Compound 4j, 3-((4-((2,4-difluorobenzyl)oxy)benzyl)amino)benzoic acid], at human PPARα (hPPARα) [3] (SI = EC50 (PPARγ or PPARδ) / EC50 (PPARα)), the SI is listed as more than 175. At human PPARα (hPPARα) [3] (over hPPARγ and hPPARδ, no agonism up to 100 μM), the “selectivity for hPPARα over other PPAR isoforms” value is recorded as more than 175 fold.

For the compound `O=C(O)c1cc(Cl)cc(NCc2ccc(OCc3ccc(F)cc3)cc2)c1` [Compound 4r, 3-chloro-5-((4-((4-fluorobenzyl)oxy)benzyl)amino)benzoic acid], the “Ratio (5/50)” value on human PPARα (hPPARα) [3] (ratio of relative light unit (RLU) signal at 5 μM and 50 μM compound) was 0.11.

For orientation: EC50 means the midpoint of the concentration-response curve. Higher therefore signals lower potency in that assay. With `Cc1cc(CNc2cccc(C(=O)O)c2)ccc1OCc1ccc(F)cc1` [Compound 4u, 3-((4-((4-fluorobenzyl)oxy)-3-methylbenzyl)amino)benzoic acid], the “stability in liver microsomes” value in data set [4] and in data set [7] was “significantly improved stability” throughout. The “improvement in binding affinity” value in data set [5] was ~ 38 fold. The “time-dependent (irreversible) inhibition of major CYP450 isoforms” value in data set [6] was “no signs of irreversible inhibition”. In addition, the “hERG channel liability” value in [2] is “not considered a hERG liability”. The “rescue of PPARα stability” value on PPARα came to 3 fold. On human PPARα (hPPARα) [8], this compound yielded a concentration for a half-maximal effect (EC50) of approximately 40 nM.
